Laboratory results published in patent US8110543B2, “Anti-invasive and anti-angiogenic compositions” (Angstrom Pharmaceuticals, Inc., priority 1997, dated 2012).

Columns and labels:
Mat B-III tumors = test: Rat syngeneic Mat B-III breast cancer model; format: in vivo; conditions: comparative analysis of related peptides
Method: The effects of the compounds are tested on tumor progression in a rat syngeneic model of breast cancer (Xing and Rabbani, 1996). Mat BIII rat breast tumor cells (1×10^6 cells in PBS, 0.1 mL per rat) are inoculated into the mammary fat pads of female Fisher rats. The test compound is dissolved in PBS (200 mM stock), sterile filtered and dispensed in vivo at a dose of up to about 100 mg/kg/day) using a 14-day Alza osmotic mini-pump implanted intraperitoneally at the time of inoculation. Control animals receive vehicle (PBS) alone. Animals are euthanized at day 14 and examined for metastasis in the spleen, lungs, liver, kidney and lymph nodes. In addition, the primary tumors are excised, quantitated, and prepared for immunohistochemistry.
The rat syngeneic breast cancer system (Xing and Rabbani, 1996) employs Mat BIIIrat breast cancer cells. When Mat B-III cells (1×10^6 cells) are inoculated into the mammary fat pad of female Fisher rats, they form large tumors which metastasize to regional lymph nodes (LNs) and other distal sites within 14-20 days.
Å6 was initially delivered prophylactically (infusion starting on the day of tumor inoculation) using an Alzet mini-pump that delivered 75 mg/kg/day. […] Metastasis was quantitated by counting the number of macroscopic foci without regard for their size.
Estrogen receptor-positive Mat B-III tumors were used to test combination treatment with Å6 (75 mg/kg/day) and TAM (3 mg/kg/day). In contrast to previous studies, the Mat B-III tumors (inoculated in the mammary fat pad) were staged to 40-50 mm^3 prior to the initiation of treatment. Treatment was continued for 8 days during which time primary tumor growth was measured using calipers (FIG. 14).

3LL cells = test: Tumor angiogenesis (microvessel density) in 3LL model; format: in vivo, Mice; conditions: 100-250 mg/kg/day; compared to controls
Method: Angiogenesis is measured by determining microvessel density using immunostaining for CD31 (also known as platelet-endothelial cell adhesion molecule or PECAM). Results are reported as the average microvessel density of 5 fields each from 5 different sections (Penfold et al., 1996). Typically, the whole tumor is excised, sectioned and the sections examined histologically for microvessel density using appropriate stains or labels for other markers.
Angiogenesis induced by tumor growth and metastasis in vivo is examined in the models systems described above. Mice injected with 3LL cells are treated either with peptide or with vehicle and are sacrificed at various time points. Angiogenesis is assessed by determining microvessel density (MVD) using an antibody specific for microvascular endothelium or other markers of growing blood vessels, such as PECAM (CD31). Such an antibody is employed in conventional immunohistological methods to immunostain tissue sections as described by Penfold et al., supra. A large number of such antibodies is commercially available, for example the JC70 mAb. The MVD are correlated with other measures of tumor behavior including lymph node status and primary tumor size and rate of growth. In humans as reported by Penfold et al., supra, tumor MVD correlates with lymph node metastasis and is independent of tumor size, growth rate or type of histological differentiation.
The compounds are given i.v., i.p., or by osmotic minipump Typical dosages are 100-250 mg/kg/day. At various time points, two animals are sacrificed, and the tumor tissue and surrounding tissue is prepared for histological examination. Results are reported as the average microvessel density of 5 fields each from 5 different sections. The following seven compounds are tested: Ac-[…]-Am (SEQ ID NO:2), Ac-[…]-Am (SEQ ID NO: 6) (disubstitution variant at positions 3 and 4), Ac-[…]-Am (SEQ ID NO: 7) (disubstitution variant at positions 7 and 8), Ac-[…]-Am (SEQ ID NO: 8) (substitution variant at position 1), Ac-PSSPPEE-Am (SEQ ID NO: 4) (deletion variant, position 1 of SEQ ID NO:2 deleted), Ac-KPSSPPE-Am (SEQ ID NO: 5) (deletion variant, position 8 of SEQ ID NO:2 deleted), and Ac-[…]-Am (SEQ ID NO:1).

PC-3 cells = test: PC-3 CAT metastasis model; format: in vivo, mice; conditions: minipump 100 mg/kg/day, 14 or 21 days
Method: The compounds of this invention are also tested for inhibition of late metastasis using an experimental metastasis model (Crowley et al., 1993). Late metastasis involves the steps of attachment and extravasation of tumor cells, local invasion, seeding, proliferation and angiogenesis.
Human prostatic carcinoma cells (PC-3) transfected with a reporter gene, preferably the green fluorescent protein (GFP) gene, but as an alternative with a gene encoding the enzymes chioramphenicol acetyl-transferase (CAT), luciferase or LacZ. This permits utilization of either of these markers (fluorescence detection of GFP or histochemical colorimetric detection of enzymatic activity) for following the fate of these cells. Cells are injected, preferably iv, and metastases identified after about 14 days, particularly in the lungs but also in regional lymph nodes, femurs and brain. This mimics the organ tropism of naturally occurring metastases of prostate cancer. For example, GFP-expressing PC-3 cells (1×10^6 cells per mouse) are injected iv into the tail veins of nude (nu/nu) mice. Animals are also implanted with mini-pumps (sub-dermally on the back) dispensing either the test compound (at least about 100 mg/kg/day) or vehicle. The animals are euthanized after 14 days and their organs prepared for histological examination. Single metastatic cells and foci are visualized and quantitated by fluorescence microscopy or light microscopic histochemistry or by grinding the tissue and quantitative colorimetric assay of the detectable label.
(§1) In addition to Å6, other related peptide compounds described above are tested for efficacy in vivo in the 3LL model (as provided above) as well as the PC-3 model. PC-3 cells transfected with the gene encoding the enzyme chloramphenicol acetyl-transferase (CAT) are inoculated into mice i.v. at doses of 1×10^6 cells per mouse. These mice are implanted with a minipump, as above, which dispenses 100 mg/kg/day of the peptide or vehicle over a period of 14 or 21 days. At termination of treatment, the animals are euthanized and the tumor marker probe is assayed in regional lymph nodes, femurs, lungs, and brain.

3LL = 3LL metastasis model, related peptides; design: species or system mice; conditions: mouse, in vivo
Text: This model has been utilized by a number of investigators. See, for example, Gorelik, E. et al., J. Nat'l. Canc. Inst. 65:1257-1264 (1980); Gorelik, E. et al., Rec. Results Canc Res. 75:20-28 (1980); Isakov, N. et al., Invasion Metas. 2:12-32 (1982); Talmadge J. E. et al., J. Nat'l. Canc. Inst. 69:975-980 (1982); Hilgard, P. et al, Br. J. Cancer 35:78-86 (1977)). Test mice are male C57BL/6 mice, 2-3 months old. Following sc, im, or intra-footpad implantation, this tumor produces metastases, preferentially in the lungs. With some lines of the tumor, the primary tumor exerts anti-metastatic effects and must first be excised before study of the metastatic phase (see also U.S. Pat. No. 5,639,725).
Single-cell suspensions are prepared from solid tumors by treating minced tumor tissue with a solution of 0.3% trypsin. Cells are washed 3 times with PBS (pH 7.4) and suspended in PBS. Viability of the 3LL cells prepared in this way is generally about 95-99% (by trypan blue dye exclusion). Viable tumor cells (3×10^4-5×10^6) suspended in 0.05 ml PBS are injected subcutaneously, either in the dorsal region or into one hind foot pad of C57BL/6 mice. Visible tumors appear after 3-4 days after dorsal sc injection of 10^6 cells. The day of tumor appearance and the diameters of established tumors are measured by caliper every two days.
The treatment is given as one or two doses of peptide or derivative, per week. In another embodiment, the peptide is delivered by osmotic minipump.
Lungs are removed and weighed. Lungs are fixed in Bouin's solution and the number of visible metastases is recorded. The diameters of the metastases are also measured using a binocular stereoscope equipped with a micrometer-containing ocular under 8× magnification. On the basis of the recorded diameters, it is possible to calculate the volume of each metastasis. To determine the total volume of metastases per lung, the mean number of visible metastases is multiplied by the mean volume of metastases. To further determine metastatic growth, it is possible to measure incorporation of ^125IdUrd into lung cells (Thakur, M. L. et al., J. Lab. Clin. Med. 89:217-228 (1977). Ten days following tumor amputation, 25 μg of fluorodeoxyuridine is inoculated into the peritoneums of tumor-bearing (and, if used, tumor-resected mice). After 30 min, mice are given 1 μCi of ^125IdUrd (iododeoxyuridine). One day later, lungs and spleens are removed and weighed, and a degree of ^125IdUrd incorporation is measured using a gamma counter.
as §1

[1] = tested on: human prostate cancer line PC-3; test: Matrigel invasion assay, PC-3 cells; format: cell-based; conditions: 5 μM (FIG. 1, FIG. 2)
Method: Several peptides were tested for anti-invasive capacity in a Matrigel® invasion assay system as indicated above (Kleinman et al., supra; Parish et al., supra). Several invasive human tumor lines (PC-3, MDA-MB-231) and non-human tumors (3LL, Mat B-III) were examined. The rat breast cancer line Mat B III and the human prostate cancer line PC-3 were initially used.
Tumor cells (5×10^5/mL, in a volume of 200 μL) in serum-free RPMI 1640 medium were added to a disposable transwell invasion chamber coated with Matrigel® (Becton Dickinson, Lincoln Park, N.J.). The invasion chambers were placed in 24-well tissue culture plates filled with serum-free RPMI-1640 and the plates were placed in an atmosphere of 5% CO2 in humidified air at 37° C. for 48-72 hours. The chambers were then removed, inverted, and the cells which had invaded (and now appeared on the bottom face of the invasion chamber) were fixed and stained using Diff-Quick® (Scientific Products). Cells were counted in 10 different fields on each filter and an average obtained.

Substance | number of metastases in the spleen, lungs, liver, kidney and lymph nodes (Mat B-III tumors) | size of the primary tumor (Mat B-III tumors) | number of microvessels in the region of the primary tumor (3LL cells) | metastasis, PC-3 model (PC-3 cells) | metastasis, 3LL model (3LL) | in vitro invasion of PC-3 cells in a Matrigel system [1]
Ac-KPSSPPDD-Am: disubstitution variant at positions 7 and 8 (SEQ ID NO: 7) (Ac-KPSSPPDD-NH2) | significant reduction | significant reduction | significant reduction | markedly inhibited | markedly inhibited | 
Ac-KPSSPPEELK-Am: capped counterpart of KPSSPPEELK (SEQ ID NO: 1) (Ac-KPSSPPEELK-NH2) [reference compound] | fail to cause a significant change | fail to cause a significant change | no significant effect | no reduction | no reduction | 
Ac-KPTTPPEE-Am: disubstitution variant at positions 3 and 4 (SEQ ID NO: 6) (Ac-KPTTPPEE-NH2) | significant reduction | significant reduction | significant reduction | markedly inhibited | markedly inhibited | 
Ac-Lys-Pro-Ser-Ser-Pro-Pro-Glu-Am (Ac-KPSSPPE-NH2) [Ac-KPSSPPE-Am] | fail to cause a significant change | fail to cause a significant change | no significant effect | no reduction | no reduction | 
Ac-Pro-Ser-Ser-Pro-Pro-Glu-Glu-Am (Ac-PSSPPEE-NH2) [Ac-PSSPPEE-Am] | fail to cause a significant change | fail to cause a significant change | no significant effect | no reduction | no reduction | 
Ac-RPSSPPEE-Am: substitution variant at position 1 (SEQ ID NO: 8) (Ac-RPSSPPEE-NH2) | significant reduction | significant reduction | significant reduction | markedly inhibited | markedly inhibited | 
KPSSPPEELK [Lys-Pro-Ser-Ser-Pro-Pro-Glu-Glu-Leu-Lys, reference compound] |  |  |  |  |  | inactive
